# Data from patent US20250205264A1, “METHODS OF USING AVERMECTIN COMPOSITIONS FOR THE TREATMENT OF SPASTICITY AND DOSING REGIMENS” (priority 2022, published 2025).
# Assays:
# [1] = Excipient compatibility study at 40° C./75% RH (HPLC Assay/Related Substances); format: physicochemical; conditions: for Total Impurities % (% adjusted area): excluding API impurities; for Total Impurities % (% adjusted area) / Chromatographic purity by HPLC (% area): 40° C./75% RH
# Procedure: An excipient compatibility study was initiated with selected excipients ranging from oils to surfactants based on equilibrium solubility results (Table 2). […] After solutions were prepared using a hand-held homogenizer (Model IKAT10 Ultra-Turrax), each excipient sample was aliquoted in amber vials, approximately 10% water was added in each excipient aliquot, and bench scale gel stripe OET-004037 was also made and added in a separate set of aliquot samples at approximately 1:1 w/w.
# All samples were stored at 40° C./75% relative humidity (RH) condition (Model: Lunaire environmental chamber) and tested by developmental reversed phase HPLC method for Assay/Related Substances at T=0, 2 weeks, and 1 month.
# [2] = Pharmacokinetics of Ivermectin B1a in SD rat plasma after IV or oral administration; conditions: 2 mg/kg, fasting, male
# Procedure: Thirty-six male Sprague Dawley rats were randomly assigned into four groups, with nine male rats in each group. All animals in all groups are fasted overnight prior to the experimental date.
# Blood samples were collected from 6 of 9 animals per group at 0.5, 1, 2, 3, 4, 6, 8, 24, 72, 120, 168 hours post-dose.
# [3] = in Masester E8120, Control, T = 0
# [4] = in Masester E8120, Control, T = 1 months
# [5] = in Masester E8120, Control, T = 2 weeks
# [6] = in Masester E8120, Gel Stripe (1:1 w/w), T = 1 months
# [7] = in Masester E8120, Gel Stripe (1:1 w/w), T = 2 weeks
# [8] = in Oleic acid, 10% water, T = 2 weeks
# [9] = in Oleic acid, Control, T = 2 weeks
# [10] = in Oleic acid, Gel Stripe (1:1 w/w), T = 2 weeks
# [11] = in PEG 400, 10% water, T = 2 weeks
# [12] = in PEG 400, Control, T = 2 weeks
# [13] = in PEG 400, Gel Stripe (1:1 w/w), T = 2 weeks
# [14] = in Tween 80, 10% water, T = 1 months
# [15] = in Tween 80, 10% water, T = 2 weeks
# [16] = in Tween 80, Control, T = 1 months
# [17] = in Tween 80, Control, T = 2 weeks
# [18] = in Tween 80, Gel Stripe (1:1 w/w), T = 1 months
# [19] = in Tween 80, Gel Stripe (1:1 w/w), T = 2 weeks
# [20] = in Vitamin E TPGS, 10% water, T = 1 months
# [21] = in Vitamin E TPGS, 10% water, T = 2 weeks
# [22] = in Vitamin E TPGS, Control, T = 0
# [23] = in Vitamin E TPGS, Control, T = 1 months
# [24] = in Vitamin E TPGS, Control, T = 2 weeks
# [25] = in Vitamin E TPGS, Gel Stripe (1:1 w/w), T = 1 months
# [26] = in Vitamin E TPGS, Gel Stripe (1:1 w/w), T = 2 weeks
substance,measurement,setting,value
ivermectin,Total Impurities % (% adjusted area),"[1]; in Masester E8120, 10% water, T = 2 weeks",2.27 % adjusted area
same,Chromatographic purity by HPLC (% area),[1]; [3],97.58 % area
same,Total Impurities % (% adjusted area),[1]; [3],0.17 % adjusted area
same,Chromatographic purity by HPLC (% area),[1]; [4],97.06 % area
same,Total Impurities % (% adjusted area),[1]; [4],0.45 % adjusted area
same,Chromatographic purity by HPLC (% area),[1]; [5],96.81 % area
same,Total Impurities % (% adjusted area),[1]; [5],0.58 % adjusted area
same,Chromatographic purity by HPLC (% area),[1]; [6],97.31 % area
same,Total Impurities % (% adjusted area),[1]; [6],0.18 % adjusted area
same,Chromatographic purity by HPLC (% area),[1]; [7],97.35 % area
same,Total Impurities % (% adjusted area),[1]; [7],0.11 % adjusted area
same,Chromatographic purity by HPLC (% area),[1]; [8],86.02 % area
same,Total Impurities % (% adjusted area),[1]; [8],9.89 % adjusted area
same,Chromatographic purity by HPLC (% area),"[1]; in Oleic acid, Control, T = 0",99.60 % area
same,Total Impurities % (% adjusted area),"[1]; in Oleic acid, Control, T = 0",<LOQ
same,Chromatographic purity by HPLC (% area),[1]; [9],83.55 % area
same,Total Impurities % (% adjusted area),[1]; [9],17.27 % adjusted area
same,Chromatographic purity by HPLC (% area),[1]; [10],83.73 % area
same,Total Impurities % (% adjusted area),[1]; [10],11.82 % adjusted area
same,Chromatographic purity by HPLC (% area),[1]; [11],94.35 % area
same,Total Impurities % (% adjusted area),[1]; [11],3.15 % adjusted area
same,Chromatographic purity by HPLC (% area),"[1]; in PEG 400, Control, T = 0",97.58 % area
same,Total Impurities % (% adjusted area),"[1]; in PEG 400, Control, T = 0",0.10 % adjusted area
same,Chromatographic purity by HPLC (% area),[1]; [12],89.36 % area
same,Total Impurities % (% adjusted area),[1]; [12],8.54 % adjusted area
same,Chromatographic purity by HPLC (% area),[1]; [13],96.92 % area
same,Total Impurities % (% adjusted area),[1]; [13],0.50 % adjusted area
same,Chromatographic purity by HPLC (% area),[1]; [14],91.18 % area
same,Total Impurities % (% adjusted area),[1]; [14],6.94 % adjusted area
same,Chromatographic purity by HPLC (% area),[1]; [15],93.02 % area
same,Total Impurities % (% adjusted area),[1]; [15],3.53 % adjusted area
same,Chromatographic purity by HPLC (% area),"[1]; in Tween 80, Control, T = 0",97.53 % area
same,Total Impurities % (% adjusted area),"[1]; in Tween 80, Control, T = 0",0.16 % adjusted area
same,Chromatographic purity by HPLC (% area),[1]; [16],88.45 % area
same,Total Impurities % (% adjusted area),[1]; [16],10.55 % adjusted area
same,Chromatographic purity by HPLC (% area),[1]; [17],91.87 % area
same,Total Impurities % (% adjusted area),[1]; [17],4.86 % adjusted area
same,Chromatographic purity by HPLC (% area),[1]; [18],93.51 % area
same,Total Impurities % (% adjusted area),[1]; [18],4.22 % adjusted area
same,Chromatographic purity by HPLC (% area),[1]; [19],93.97 % area
same,Total Impurities % (% adjusted area),[1]; [19],2.43 % adjusted area
same,Chromatographic purity by HPLC (% area),[1]; [20],97.46 % area
same,Total Impurities % (% adjusted area),[1]; [20],<LOQ
same,Chromatographic purity by HPLC (% area),[1]; [21],96.99 % area
same,Total Impurities % (% adjusted area),[1]; [21],0.42 % adjusted area
same,Chromatographic purity by HPLC (% area),[1]; [22],97.74 % area
same,Total Impurities % (% adjusted area),[1]; [22],<LOQ
same,Chromatographic purity by HPLC (% area),[1]; [23],97.37 % area
same,Total Impurities % (% adjusted area),[1]; [23],0.11 % adjusted area
same,Chromatographic purity by HPLC (% area),[1]; [24],97.43 % area
same,Total Impurities % (% adjusted area),[1]; [24],<LOQ
same,Chromatographic purity by HPLC (% area),[1]; [25],97.74 % area
same,Total Impurities % (% adjusted area),[1]; [25],<LOQ
same,Chromatographic purity by HPLC (% area),[1]; [26],97.50 % area
same,Total Impurities % (% adjusted area),[1]; [26],<LOQ
same,chemical compatibility with the API,"[1]; oily vehicles Maisine CC, fractionated coconut oil, and oleic acid",good chemical compatibility
same,AUC(0-t),[2],8259.31 ± 1032.95 ng·h/mL
same,AUC(0-∞),[2],8273.53 ng·h/mL
same,Cmax,[2],1722.67 ng/mL
same,MRT(0-t),[2],10.58 h
same,MRT(0-∞),[2],10.81 h
same,T1/2,[2],14.82 ± 0.72 h
same,Tmax,[2],0.50 h
